US20220387365A1, “TUCARESOL DERIVATIVES AND USES THEREOF” (BeyondSpring Pharmaceuticals, Inc., priority 2019, published 2022)

Columns and labels:
[1] = Intravenous and oral dosing pharmacokinetic screen, plasma concentration by LC/MS/MS; parameters: species or system C57BL/6 mice; settings: in vivo; for concentration at 0.083 h / concentration at 0.25 h / concentration at 0.5 h / concentration at 2 h / concentration at 4 h / concentration at 1 h / concentration at 8 h / concentration at 24 h: B02 concentration
Method: (§1) Tucaresol, Compound B02, Compound C01, Compound C02-1, and Compound C02 were dosed once, by IV bolus (3 mg/kg in 20% hydroxyprophyl-13-cyclodextrin with 1 eq NaOH) or PO (10 mg/kg in 1% carboxymethylcellulose/0.1% tween-80 in water), to non-fasted male C57BL/6 mice. Animals were bled from the dorsal metatarsal vein (from the heart for 24 hour time point) for K2-EDTA plasma 0.083 (for IV only), 0.25, 0.5, 1, 2, 4, 8, and 24 hours after dosing. The plasma concentration of the dosed tucaresol or compound were measured by LC/MS/MS (I-CMS-8060 instrument for MS). PK parameters were then calculated with WinNonlin 6.1. For Compounds C01, CO2 and CO2-1, stability in C57BL/6 K2EDTA plasma was also evaluated at 22° C. over 1 hour by utilizing LC.

[2] = Stability in C57BL/6 K2EDTA plasma at 22° C. over 1 hour by LC; format: in vitro ADME, mouse; settings: for mouse plasma stability (in words): 22° C.; for Remaining %: mouse plasma, 2,000 ng/mL, 22°C
Method: as §1
Compounds C01 and C02-1 are unstable at 22° C.

[3] = male, C57BL/6, mouse, iv, 3 mg/kg, 0.083 h
[4] = male, C57BL/6, mouse, iv, 3 mg/kg, 0.25 h
[5] = male, C57BL/6, mouse, iv, 3 mg/kg, 2 h
[6] = male, C57BL/6, mouse, iv, 3 mg/kg, 4 h
[7] = male, C57BL/6, mouse, iv, 3 mg/kg, 8 h
[8] = male, C57BL/6, mouse, iv, 3 mg/kg
[9] = male, C57BL/6, mouse, iv, 3 mg/kg, Mean
[10] = male, C57BL/6, mouse, po, 10 mg/kg, 0.25 h
[11] = male, C57BL/6, mouse, po, 10 mg/kg, 0.5 h
[12] = male, C57BL/6, mouse, po, 10 mg/kg, 1 h
[13] = male, C57BL/6, mouse, po, 10 mg/kg, 2 h
[14] = male, C57BL/6, mouse, po, 10 mg/kg, 4 h
[15] = male, C57BL/6, mouse, po, 10 mg/kg, 8 h
[16] = male, C57BL/6, mouse, po, 10 mg/kg
[17] = male, C57BL/6, mouse, po, 10 mg/kg, Mean
[18] = male, C57BL/6, mouse, iv, 3 mg/kg, 0.5 h
[19] = male, C57BL/6, mouse, iv, 3 mg/kg, 1 h

Work on CO/N=C/c1c(O)cccc1OCc1ccc(C(=O)O)cc1 [Compound B02, (E)−4+((3-hydroxy-2-((methoxyimino)methyl)phenoxy)methyl)benzoic acid] yielded an AUClast/D ([1]; male, C57BL/6, mouse) of 24.3 ng·h/mL per mg/kg, a T1/2 ([1]; male, C57BL/6, mouse) of 5.49 h and a Tmax ([1]; male, C57BL/6, mouse) of 5.42 h. For the same compound, the “Tucaresol plasma concentration, Mean” value [1, 3] was 12.5 ng/mL, the “Tucaresol plasma concentration, Mean” value [1, 4] was 6.01 ng/mL and the “Tucaresol plasma concentration, Mean” value [1, 5] was 4.30 ng/mL. The “Tucaresol plasma concentration, Mean” value [1, 6] was 7.04 ng/mL, the “Tucaresol plasma concentration, Mean” value [1, 7] was 8.52 ng/mL and the concentration at 0.083 h [1, 8] was 3220 ng/mL. The concentration at 0.25 h [1, 8] was 1740 ng/mL, the concentration at 0.5 h [1, 8] was 335 ng/mL and the concentration at 2 h [1, 8] was 179 ng/mL. For the same compound, the concentration at 4 h [1, 8] was 43.4 ng/mL, the concentration at 0.083 h [1, 9] was 3050 ng/mL and the concentration at 0.25 h [1, 9] was 1340 ng/mL. It also gave a concentration at 0.5 h [1, 9] of 283 ng/mL, a concentration at 1 h [1, 9] of 48.3 ng/mL and a concentration at 2 h [1, 9] of 187 ng/mL. The concentration at 4 h [1, 9] was 54 ng/mL, the concentration at 8 h [1, 9] was 18 ng/mL and the “Tucaresol plasma concentration, Mean” value [1, 10] was 16.2 ng/mL. For the same compound, the “Tucaresol plasma concentration, Mean” value [1, 11] was 9.3 ng/mL, the “Tucaresol plasma concentration, Mean” value [1, 12] was 5.54 ng/mL and the “Tucaresol plasma concentration, Mean” value [1, 13] was 11.0 ng/mL. For the same compound, the “Tucaresol plasma concentration, Mean” value [1, 14] was 15.7 ng/mL, the “Tucaresol plasma concentration, Mean” value [1, 15] was 28.4 ng/mL and the concentration at 0.25 h [1, 16] was 5780 ng/mL. For the same compound, the concentration at 0.5 h [1, 16] was 3370 ng/mL, the concentration at 4 h [1, 16] was 468 ng/mL and the concentration at 8 h [1, 16] was 114 ng/mL. For the same compound, the concentration at 24 h [1, 16] was 6.93 ng/mL, the concentration at 0.25 h [1, 17] was 4260 ng/mL and the concentration at 0.5 h [1, 17] was 2650 ng/mL. The concentration at 1 h [1, 17] was 674 ng/mL, the concentration at 2 h [1, 17] was 478 ng/mL and the concentration at 4 h [1, 17] was 412 ng/mL. For the same compound, the concentration at 8 h [1, 17] was 152 ng/mL and the concentration at 24 h [1, 17] was 10.5 ng/mL.
In the case of CC(=O)Oc1cccc(OCc2ccc(C(=O)O)cc2)c1C=O [Compound C01, 4-((3-acetoxy-2-formylphenoxy)methyl)benzoic acid], the AUClast/D ([1]; male, C57BL/6, mouse) is reported as 4.24 ng·h/mL per mg/kg, the F ([1]; male, C57BL/6, mouse) is reported as 0.333% and the T1/2 ([1]; male, C57BL/6, mouse) is reported as 4.24 h. For the same compound, the Tmax ([1]; male, C57BL/6, mouse) was 0.333 h, the “Concentration, Compound B02 IV Plasma concentration-time data, Mean” value [1, 3] was 1021 ng/mL and the “Concentration, Compound B02 IV Plasma concentration-time data, Mean” value [1, 4] was 691 ng/mL. The “Concentration, Compound B02 IV Plasma concentration-time data, Mean” value [1, 18] was 465 ng/mL, the “Concentration, Compound B02 IV Plasma concentration-time data, Mean” value [1, 19] was 316 ng/mL and the “Concentration, Compound B02 IV Plasma concentration-time data, Mean” value [1, 5] was 201 ng/mL. For the same compound, the “Concentration, Compound B02 IV Plasma concentration-time data, Mean” value [1, 6] was 116 ng/mL, the “Concentration, Compound B02 IV Plasma concentration-time data, Mean” value [1, 7] was 60.9 ng/mL and the “tucaresol exposure in plasma (in words)” value ([1]; male, C57BL/6, mouse, po) was “significant but lower tucaresol exposure than Compound C02 dosing”. The “Concentration, Compound B02 PO Plasma concentration-time data, Mean” value [1, 10] was 643 ng/mL, the “Concentration, Compound B02 PO Plasma concentration-time data, Mean” value [1, 11] was 512 ng/mL and the “Concentration, Compound B02 PO Plasma concentration-time data, Mean” value [1, 12] was 386 ng/mL. For the same compound, the “Concentration, Compound B02 PO Plasma concentration-time data, Mean” value [1, 13] was 302 ng/mL, the “Concentration, Compound B02 PO Plasma concentration-time data, Mean” value [1, 14] was 191 ng/mL and the “Concentration, Compound B02 PO Plasma concentration-time data, Mean” value [1, 15] was 107 ng/mL. For the same compound, the “Concentration, Compound B02 PO Plasma concentration-time data, Mean” value ([1]; male, C57BL/6, mouse, po, 10 mg/kg, 24 h) was 7.50 ng/mL, the “tucaresol exposure in plasma (in words)” value ([1]; mouse, po) was “significant exposure to tucaresol in plasma” and the “mouse plasma stability (in words)” value [2] was “unstable”. It also gave a Remaining % ([2]; 0 min) of 100%, a Remaining % ([2]; 5 min) of 15.0% and a Remaining % ([2]; 15 min) of 1.07%.
With COC(=O)c1ccc(COc2cccc(O)c2C=O)cc1 [Compound C02-1, methyl 4-((2-formyl-3-hydroxyphenoxy)methyl)benzoate] the AUClast/D ([1]; male, C57BL/6, mouse) was 161 ng·h/mL per mg/kg, the T1/2 ([1]; male, C57BL/6, mouse) was 13.8 h and the Tmax ([1]; male, C57BL/6, mouse) was 3.33 h. The “Tucaresol concentration, Mean” value [1, 3] was 17.3 ng/mL, the “Tucaresol concentration, Mean” value [1, 4] was 52.9 ng/mL and the “Tucaresol concentration, Mean” value [1, 18] was 79.9 ng/mL. For the same compound, the “Tucaresol concentration, Mean” value [1, 19] was 60.5 ng/mL, the “Tucaresol concentration, Mean” value [1, 5] was 49.3 ng/mL and the “Tucaresol concentration, Mean” value [1, 6] was 36.0 ng/mL. For the same compound, the “Tucaresol concentration, Mean” value [1, 7] was 18.2 ng/mL, the “Tucaresol concentration, Mean” value [1, 11] was 15.9 ng/mL and the “Tucaresol concentration, Mean” value [1, 12] was 49.9 ng/mL. For the same compound, the “Tucaresol concentration, Mean” value [1, 13] was 103 ng/mL, the “Tucaresol concentration, Mean” value [1, 14] was 114 ng/mL and the “Tucaresol concentration, Mean” value [1, 15] was 83.0 ng/mL. For the same compound, the “mouse plasma stability (in words)” value [2] was “unstable”, the Remaining % ([2]; 0 min) was 100% and the Remaining % ([2]; 5 min) was 18.9%. It also gave a Remaining % ([2]; 15 min) of 16.7%, a Remaining % ([2]; 30 min) of 6.56% and a Remaining % ([2]; 60 min) of 2.37%.
